From publication PMC10304174, “Development of Zeise’s Salt Derivatives Bearing Substituted Acetylsalicylic Acid Substructures as Cytotoxic COX Inhibitors” (Pharmaceutics, 2023)

Legend:
[1] = system: MCF-7 cells; test: Crystal violet assay, antiproliferative effects in MCF-7 cells; format: cell-based; conditions: MCF-7 (COX-negative), 72 h
Description: (§1) In order to investigate the cytotoxic effects in MCF-7 and HT-29 cells, an already published crystal violet assay was used. The cells (HT-29: 3 × 10^3 cells per well in 100 µL of medium; MCF-7: 2 × 10^3 cells per well in 100 µL of medium) were seeded in their exponential growth phase in completed DMEM into 96-well microtiter plates in quadruples. […] Cells were then fixed with a solution of 1% (v/v) glutaric dialdehyde in PBS. In order to determine the cell biomass, the chromatin of the attached cells was stained with crystal violet, and the bound dye was extracted with EtOH (70%). The absorbance was measured at 590 nm. Mean values ± SD of ≥2 independent experiments were calculated, and the activity of the complexes was expressed as the cell mass of the vehicle-treated control, which was set to 100%.
(§2) The compounds were investigated regarding their cytotoxicity (in vitro) employing an already published crystal violet assay. It is based on the quantification of the cell biomass of living cells by staining the chromatin. In order to evaluate the possible influence of COX inhibition on cell growth, Zeise’s salt derivatives were investigated comparatively in HT-29 and MCF-7 cell lines.

[2] = system: HT-29 cells; test: Crystal violet assay, antiproliferative effects in HT-29 cells; format: cell-based; conditions: HT-29 (COX-1/2-positive), 72 h
Description: as §1, §2

[3] = system: PGE2 synthesis in HT-29 cells; test: Inhibition of the PGE2 synthesis in HT-29 cells (PGE2 EIA); format: cell-based; conditions: 24 h at 37 °C, then 50 µM arachidonic acid 1 h; for Inhibition of PGE2 synthesis: 10 µM
Description: Exponentially growing HT-29 cells were seeded into 24-well plates at a concentration of 5 × 10^4 cells in 500 µL of cell culture medium per well. […] In the next step, the substrate arachidonic acid (Sigma Aldrich, St. Louis, MO, USA) at a concentration of 50 µM was added. After 1 h, the COX-catalyzed PGE2 production was stopped by removing the supernatant from the cells, which was analyzed by EIA (Prostaglandin E2 Kit—Monoclonal, Cayman Chemicals, Ann Arbor, MI, USA) according to the manufacturer’s protocol.
HT-29 cells express both isoenzymes at high levels, allowing COX-1/2 interaction to be studied using an antibody-based PGE2 assay, which quantifies the PGE2 released by the cells into the cell culture medium. All Zeise’s salt derivatives were tested at a concentration of 10 µM (Figure 4).

[4] = Complex stability by capillary electrophoresis (decrease of initial complex over time); format: physicochemical; conditions: MeOH/water (50/50, v/v), 1 mM, 37 °C, CE
Description: The analysis was performed as previously described. A 50 mM sodium tetraborate solution (pH = 9.3, adjusted with 1 M NaOH), served as background electrolyte (BGE). Washing of novel capillaries consecutively with 1 M NaOH (45 min), water (45 min), and BGE (45 min) was performed. The hydrodynamic injection mode was utilized to introduce the samples into the capillary (50 mbar for 2 s). The capillary was kept at 25 °C, and the autosampler was thermostatted at 37 °C with an external water bath. For separation, the voltage was set to 20 kV, and the detection was carried out at the wavelength of 230 nm. Before each measurement, flushing of the capillary with 0.1 M NaOH (3 min), water (3 min), and BGE (5 min) took place. The samples were dissolved in methanol (MeOH) and further diluted in equal parts by volume with water to give a final concentration of 1 mM. Triple determinations were performed, and the half-lives (τ½) are presented as mean ± SD of ≥3 independent experiments. Samples, washing solutions, and buffers were filtered through a membrane with 0.22 µm porosity and degassed by ultrasonication before use. To simplify the reaction dynamics from a possible second-order to pseudo-first-order, one of two reactants must be present in great excess (>10 to 25-fold). If this condition is fulfilled, logarithmic plotting of the gradual decrease in the other reactant’s concentration (or increase in the concentration of a product, respectively) against the time yields a straight line, and half-lives can be calculated.
An already-established method was used to study the stability of the X-ASA-Prop-PtCl3 and X-ASA-But-PtCl3 complexes. The degradation products were separated by capillary electrophoresis using a fused-silica capillary ([…] × 75 µm, effective length: 56 cm, capillary temperature: 25 °C) and a 50 mM tetraborate buffer (pH = 9.3) as BGE. For separation, the voltage was set to 20 kV and the compounds were detected at 230 nm. Benzoic acid was used as an internal standard. Exemplary electropherograms of each complex can be found in the Supplementary Material (Figures S1–S24).
The complexes (1 mM) were dissolved in MeOH or MeOH/water (50/50, v/v) and stored at 37 °C. The decrease in the initial amount of complex was monitored time-dependently by CE, and the half-life (τ½) was calculated (Table 2).

[5] = target: T1, COX-1 (Ovis aries, UniProt P05979); test: COX Inhibitor Screening Assay (EIA) on isolated COX-1 isoenzyme; format: biochemical, ovine; conditions: for Inhibition of COX-1: incubation 10 min
T1 construct: purchased Cayman Chemicals
T1 sequence (P05979 25-600): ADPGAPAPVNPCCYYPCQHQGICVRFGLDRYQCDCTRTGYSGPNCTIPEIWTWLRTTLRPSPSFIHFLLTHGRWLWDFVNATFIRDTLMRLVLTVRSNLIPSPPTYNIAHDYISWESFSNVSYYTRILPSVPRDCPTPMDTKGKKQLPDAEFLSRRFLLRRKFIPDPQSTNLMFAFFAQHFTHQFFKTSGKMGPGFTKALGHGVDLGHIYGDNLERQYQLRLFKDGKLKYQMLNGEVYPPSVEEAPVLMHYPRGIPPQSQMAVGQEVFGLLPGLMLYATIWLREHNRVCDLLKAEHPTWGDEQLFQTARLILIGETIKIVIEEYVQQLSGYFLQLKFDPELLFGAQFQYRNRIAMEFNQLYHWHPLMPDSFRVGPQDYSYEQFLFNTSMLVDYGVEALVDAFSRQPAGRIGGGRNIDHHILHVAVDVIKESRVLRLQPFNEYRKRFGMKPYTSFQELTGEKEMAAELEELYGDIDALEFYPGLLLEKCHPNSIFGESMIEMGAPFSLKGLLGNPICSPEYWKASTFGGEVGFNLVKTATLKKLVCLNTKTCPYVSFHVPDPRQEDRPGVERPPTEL
Description: (§3) The incubation of the respective complexes with the isoenzymes was exactly 10 min. The values of COX inhibition were calculated as the mean of duplicates and shown as the mean ± SD of ≥2 independent experiments.

[6] = target: T1, COX-1; set-up: method as in PMID 29492489, PMID 31617517; conditions: isolated isoenzymes; cited from earlier work
[7] = target: T2, COX-2 (Homo sapiens, UniProt P35354); set-up: method as in PMID 29492489, PMID 31617517; conditions: isolated isoenzymes; cited from earlier work
T2 construct: purchased Cayman Chemicals
T2 sequence (P35354 18-604): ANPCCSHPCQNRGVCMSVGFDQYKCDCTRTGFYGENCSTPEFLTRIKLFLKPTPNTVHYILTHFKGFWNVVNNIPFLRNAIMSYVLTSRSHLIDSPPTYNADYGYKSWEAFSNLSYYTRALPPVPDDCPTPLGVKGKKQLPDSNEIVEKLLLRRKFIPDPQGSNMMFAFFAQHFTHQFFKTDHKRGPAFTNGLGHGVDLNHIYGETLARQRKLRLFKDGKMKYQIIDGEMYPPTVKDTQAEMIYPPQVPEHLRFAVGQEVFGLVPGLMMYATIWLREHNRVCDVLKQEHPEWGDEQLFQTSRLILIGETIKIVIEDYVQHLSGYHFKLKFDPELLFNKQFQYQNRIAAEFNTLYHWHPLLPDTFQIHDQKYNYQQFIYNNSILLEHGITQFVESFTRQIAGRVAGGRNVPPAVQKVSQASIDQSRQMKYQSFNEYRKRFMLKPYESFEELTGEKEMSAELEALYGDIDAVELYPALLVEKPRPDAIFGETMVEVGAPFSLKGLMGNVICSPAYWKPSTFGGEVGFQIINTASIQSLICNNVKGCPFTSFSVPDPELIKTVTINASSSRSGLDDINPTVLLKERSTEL

[8] = system: HT-29 cells; set-up: method as in PMID 29848978; conditions: COX-1/2-positive HT-29 colon carcinoma cells; cited from earlier work
[9] = system: MCF-7 cells; set-up: method as in PMID 29848978; conditions: COX-negative MCF-7 breast cancer cells; cited from earlier work
[10] = target: T2, COX-2; test: COX Inhibitor Screening Assay (EIA) on isolated COX-2 isoenzyme; format: biochemical; conditions: incubation 10 min
Description: as §3

[11] = set-up: method as in doi:10.1002/zaac.19603050315; conditions: forms elemental platinum in an internal redox reaction; cited from earlier work

| SMILES | IC50 [1] [µM] | IC50 [2] [µM] | Inhibition of PGE2 synthesis [3] [%] | Half-life (τ½) [4] [min] | other results |
| --- | --- | --- | --- | --- | --- |
| CC(=O)Oc1cc(C)ccc1C(=O)OC[CH]1[CH2][Pt-]1([Cl])([Cl])[Cl].[K+] (stereo not shown) [4-CH3-ASA-Prop-PtCl3, Potassium trichlorido[η^2-(prop-2-en-1-yl)-2-acetoxy-4-methylbenzoate]platinate(II)] | 62.9 ± 1.6 | 24.2 ± 2.4 | 88.4 | 40.4 ± 1.1 |  |
| CC(=O)Oc1ccc(C)cc1C(=O)OC[CH]1[CH2][Pt-]1([Cl])([Cl])[Cl].[K+] (stereo not shown) [5-CH3-ASA-Prop-PtCl3, Potassium trichlorido[η^2-(prop-2-en-1-yl)-2-acetoxy-5-methylbenzoate]platinate(II)] | 70.2 ± 2.8 | 21.9 ± 4.6 | 82.4 | 36.7 ± 1.1 |  |
| CC(=O)Oc1ccc(Cl)cc1C(=O)OC[CH]1[CH2][Pt-]1([Cl])([Cl])[Cl].[K+] (stereo not shown) [5-Cl-ASA-Prop-PtCl3, Potassium trichlorido[η^2-(prop-2-en-1-yl)-2-acetoxy-5-chlorobenzoate]platinate(II)] | 52.8 ± 9.2 | 53.4 ± 0.7 | 84.0 | 35.2 ± 0.9 | COX-1 selectivity ([5]; from inhibition at 1 µM, COX-1 over COX-2): 1.7 fold |
| CC(=O)Oc1ccccc1C(=O)O [ASA, Acetylsalicylic acid] |  |  |  |  | Concentration causing significant effects on COX-1 [6]: higher than 100 µM; Concentration causing significant effects on COX-2 [7]: higher than 100 µM; inhibition at 10 µM ([3]; Homo sapiens): 17.9% |
| CC(=O)Oc1ccccc1C(=O)OCC[CH]1[CH2][Pt-]1([Cl])([Cl])[Cl].[K+] (stereo not shown) [ASA-But-PtCl3] |  |  |  | 4180 | Growth inhibition in HT-29 cells [8]: low growth inhibitory potential; Growth inhibition in MCF-7 cells [9]: nearly inactive |
| CC(=O)Oc1ccccc1C(=O)OC[CH]1[CH2][Pt-]1([Cl])([Cl])[Cl].[K+] (stereo not shown) [ASA-Prop-PtCl3] |  |  |  | 35.7 | Growth inhibition in HT-29 cells [8]: low growth inhibitory potential; Growth inhibition in MCF-7 cells [9]: nearly inactive |
| C=C.O.[Cl][Pt-]([Cl])[Cl].[K+] [Zeise’s salt] |  |  | 24.5 |  | Inhibition of COX-2 ([10]; 1 µM): 1.5%; Inhibition of COX-2 ([10]; 10 µM): 8.3%; Inhibition of COX-1 ([5]; 1 µM): 37.3%; Inhibition of COX-1 ([5]; 10 µM): 94.4%; Stability in aqueous environment [11]: not stable |
